Results on 4 molecules are retold here after patent publication US8216800B2, “Substrates for detecting peptidase activity and methods using the substrates” (Biomerieux, priority 2007, dated 2012).

Common to all, as to test: Peptidase activity detection on Columbia agar containing substrate
Type in all cases: cell-based

The subject of data set [1] is Bacillus subtilis NCTC 9372. Set-up: key: − = no fluorescence detected; e = trace of fluorescence; +/− = weak fluorescence; + = medium fluorescence; ++ = strong fluorescence; NG = No Growth. The following applies: substrate 100 mg/l, 24 hours at 37° C., UV 360-365 nm. The protocol: (§1) 40 mg of each substrate are dissolved in 4 ml of dimethylformamide (DMF). This solution is completely taken up in 400 ml of Columbia agar autoclaved beforehand and kept molten at 50° C. The final concentration for each substrate is therefore 100 mg/l. Each of the media is distributed into 90 mm Petri dishes in a proportion of 20 ml per dish.
(§2) 18 microorganism strains derived from collections and belonging to various species of bacteria and of yeasts are inoculated onto these media by semi-quantitative isolation of 10 μl of a suspension at 0.5 McFarland diluted to 1/20. The media are incubated for 24 hours at 37° C., and then the colonies formed are examined visually under UV illumination at 360-365 nm.

Data set [2] has as its system Candida albicans ATCC 90028. On the set-up: key: − = no fluorescence detected; e = trace of fluorescence; +/− = weak fluorescence; + = medium fluorescence; ++ = strong fluorescence; NG = No Growth. Particulars: substrate 100 mg/l, 24 hours at 37° C., UV 360-365 nm. How it is done: as §1, §2
Data set [3] relates to Candida glabrata NCPF3943. Set-up: key: − = no fluorescence detected; e = trace of fluorescence; +/− = weak fluorescence; + = medium fluorescence; ++ = strong fluorescence; NG = No Growth. The following applies: substrate 100 mg/l, 24 hours at 37° C., UV 360-365 nm. The protocol: as §1, §2
In data set [4] the test system is Enterobacter cloacae NCTC 11936. Set-up: key: − = no fluorescence detected; e = trace of fluorescence; +/− = weak fluorescence; + = medium fluorescence; ++ = strong fluorescence; NG = No Growth. Particulars: substrate 100 mg/l, 24 hours at 37° C., UV 360-365 nm. The protocol:
as §1, §2

Data set [5] deals with Enterococcus faecalis NCTC 775. Set-up: key: − = no fluorescence detected; e = trace of fluorescence; +/− = weak fluorescence; + = medium fluorescence; ++ = strong fluorescence; NG = No Growth. The following applies: substrate 100 mg/l, 24 hours at 37° C., UV 360-365 nm. The protocol:
as §1, §2

Data set [6] deals with Enterococcus faecium NCTC 11047. Set-up: key: − = no fluorescence detected; e = trace of fluorescence; +/− = weak fluorescence; + = medium fluorescence; ++ = strong fluorescence; NG = No Growth. The following applies: Enterococcus faecium NCTC 11047 (Table 2); substrate 100 mg/l, 24 hours at 37° C., UV 360-365 nm. The protocol: as §1, §2
The subject of data set [7] is Escherichia coli NCTC 10418. Set-up: key: − = no fluorescence detected; e = trace of fluorescence; +/− = weak fluorescence; + = medium fluorescence; ++ = strong fluorescence; NG = No Growth. Particulars: substrate 100 mg/l, 24 hours at 37° C., UV 360-365 nm. The protocol: as §1, §2
The test system of data set [8] is Listeria monocytogenes NCTC 11994. On the set-up: key: − = no fluorescence detected; e = trace of fluorescence; +/− = weak fluorescence; + = medium fluorescence; ++ = strong fluorescence; NG = No Growth. Particulars: substrate 100 mg/l, 24 hours at 37° C., UV 360-365 nm. The protocol:
as §1, §2

Data set [9] has as its system Providencia rettgeri NCTC 7475. Set-up: key: − = no fluorescence detected; e = trace of fluorescence; +/− = weak fluorescence; + = medium fluorescence; ++ = strong fluorescence; NG = No Growth. The following applies: substrate 100 mg/l, 24 hours at 37° C., UV 360-365 nm. How it is done:
as §1, §2

Data set [10] concerns Salmonella Typhimurium NCTC 74. On the set-up: key: − = no fluorescence detected; e = trace of fluorescence; +/− = weak fluorescence; + = medium fluorescence; ++ = strong fluorescence; NG = No Growth. The following applies: substrate 100 mg/l, 24 hours at 37° C., UV 360-365 nm. The protocol:
as §1, §2

Data set [11] relates to Serratia marcescens NCTC 10211. Set-up: key: − = no fluorescence detected; e = trace of fluorescence; +/− = weak fluorescence; + = medium fluorescence; ++ = strong fluorescence; NG = No Growth. The following applies: substrate 100 mg/l, 24 hours at 37° C., UV 360-365 nm. The protocol: as §1, §2
Data set [12] has as its system Staphylococcus aureus NCTC 11939. On the set-up: key: − = no fluorescence detected; e = trace of fluorescence; +/− = weak fluorescence; + = medium fluorescence; ++ = strong fluorescence; NG = No Growth. The following applies: Staphylococcus aureus (MRSA) NCTC 11939; substrate 100 mg/l, 24 hours at 37° C., UV 360-365 nm. How it is done: as §1, §2
Data set [13] has as its system Staphylococcus aureus NCTC 6571. On the set-up: key: − = no fluorescence detected; e = trace of fluorescence; +/− = weak fluorescence; + = medium fluorescence; ++ = strong fluorescence; NG = No Growth. Particulars: substrate 100 mg/l, 24 hours at 37° C., UV 360-365 nm. The protocol: as §1, §2
The test system of data set [14] is Staphylococcus epidermidis NCTC 11047. Set-up: key: − = no fluorescence detected; e = trace of fluorescence; +/− = weak fluorescence; + = medium fluorescence; ++ = strong fluorescence; NG = No Growth. Particulars: substrate 100 mg/l, 24 hours at 37° C., UV 360-365 nm. How it is done:
as §1, §2

Data set [15] concerns Streptococcus pyogenes NCTC 8306. Set-up: key: − = no fluorescence detected; e = trace of fluorescence; +/− = weak fluorescence; + = medium fluorescence; ++ = strong fluorescence; NG = No Growth. Particulars: substrate 100 mg/l, 24 hours at 37° C., UV 360-365 nm. The protocol:
as §1, §2

The subject of data set [16] is Yersinia enterocolitica NCTC 11176. On the set-up: key: − = no fluorescence detected; e = trace of fluorescence; +/− = weak fluorescence; + = medium fluorescence; ++ = strong fluorescence; NG = No Growth. Particulars: substrate 100 mg/l, 24 hours at 37° C., UV 360-365 nm. The protocol: as §1, §2
The test system of data set [17] is Burkholderia cepacia 1222. On the set-up: key to fluorescence intensity: − = no fluorescence detected; e = trace of fluorescence; +/− = weak fluorescence; + = medium fluorescence; ++ = strong fluorescence; NG = No Growth. Particulars: Burkholderia cepacia 1222; substrate 100 mg/l, 24 hours at 37° C., UV 360-365 nm. The protocol:
as §1, §2

Data set [18] concerns Pseudomonas aeruginosa NCTC 10662. Set-up: key to fluorescence intensity: − = no fluorescence detected; e = trace of fluorescence; +/− = weak fluorescence; + = medium fluorescence; ++ = strong fluorescence; NG = No Growth. Particulars: Pseudomonas aeruginosa NCTC 10662; substrate 100 mg/l, 24 hours at 37° C., UV 360-365 nm. The protocol:
as §1, §2

In data set [19] the test system is Gram-negative bacterial strains. The following applies: all the Gram-negative bacterial strains with the exception of the Burkholderia cepacia strain. The protocol: as §1, §2
The subject of data set [20] is Staphylococcus aureus strains. The following applies: the two Staphylococcus aureus strains. The protocol:
as §1, §2

In the next data set the test system is enterococcal strains. The following applies: the two enterococcal strains. How it is done:
as §1, §2

Data set [21] relates to Citrobacter freundii 46262 (wild). On the set-up: key: − = no fluorescence detected; e = trace of fluorescence; +/− = weak fluorescence; + = medium fluorescence; ++ = strong fluorescence; NG = No Growth. The following applies: substrate 100 mg/l, 24 hours at 37° C., UV 360-365 nm. The protocol:
as §1, §2

In data set [22] the test system is Enterococcus faecium NCTC 7171. On the set-up: key: − = no fluorescence detected; e = trace of fluorescence; +/− = weak fluorescence; + = medium fluorescence; ++ = strong fluorescence; NG = No Growth. Particulars: Enterococcus faecium NCTC 7171 (Table 3); substrate 100 mg/l, 24 hours at 37° C., UV 360-365 nm. The protocol: as §1, §2
Data set [23] concerns Morganella morganii 462403 (wild). On the set-up: key: − = no fluorescence detected; e = trace of fluorescence; +/− = weak fluorescence; + = medium fluorescence; ++ = strong fluorescence; NG = No Growth. Particulars: substrate 100 mg/l, 24 hours at 37° C., UV 360-365 nm. How it is done:
as §1, §2

Data set [24] concerns Gram-positive bacterial strains and the yeasts. The following applies: all the Gram-positive bacterial strains and the yeasts. How it is done: as §1, §2

Molecules are shown by their SMILES.

With `C[C@H](N)C(=O)Nc1ccccc1-c1nc2ccccc2o1` [Substrate 1], the fluorescence intensity entry is reported as “−” in data set [1]; “−” in [2]; “−” in [3]; “++” in [4]; “+/−” in data set [5]; “+/−” in [6]. The fluorescence intensity result in data set [7] is on record as “++^1”; in data set [8], “+/−”; in data set [9], “++”; in [10] it was “++”; in data set [11], “++”; in data set [12] it was “+”. For the same molecule, the fluorescence intensity result in data set [13] is “+”; in data set [14] it was “−”; in data set [15], “−”; in data set [16] it was “++”; in data set [17] it was “−”; in [18], “++”. The “fluorescence produced” value in data set [19] is recorded as “strong blue fluorescence”; in data set [20], “medium green fluorescence”; in the data set on enterococcal strains it was “weak blue fluorescence”.
For `C[C@H](N)C(=O)Nc1ccccc1-c1nc2ccccc2n1CCc1ccccc1` [Substrate 14], the fluorescence intensity result in data set [1] is recorded as “−”; in data set [2], “−”; in data set [3], “−”; in data set [21], “−”; in data set [4], “+/−”; in data set [5], “−”. In addition, the fluorescence intensity entry in data set [22], in data set [7], in data set [8], in [23], in data set [9] and in data set [10] was “−” throughout. In addition, the fluorescence intensity result in data set [11] is “+/−”; in data set [12], “−”; in [13], “−”; in [14] it was “−”; in data set [15] it was “−”; in data set [16], “−”. Besides, the fluorescence intensity result in data set [17] and in data set [18] was “−” throughout.
For the molecule `C[C@H](N)C(=O)Nc1cc2c(cc1-c1nc3ccccc3n1CCc1ccccc1)OCO2` [Substrate 16], the fluorescence intensity entry is recorded as “−” in data set [1]; “−” in data set [2]; “−” in [3]; “++” in [21]; “++” in data set [4]; “−” in data set [5]. Besides, the fluorescence intensity result is “−” in [22]; “++” in [7]; “−” in data set [8]; “+” in data set [23]; “++” in data set [9]; “++” in [10]. For the same molecule, the fluorescence intensity result in [11] is reported as “++”; in data set [12], “−”; in [13] it was “−”; in data set [14] it was “−”; in [15], “−”; in [16] it was “−”. Further, the fluorescence intensity result is “++” in [17] and “−” in [18].
For the molecule `C[C@H](N)C(=O)Nc1ccccc1-c1nc2ccccc2s1` [Substrate 17], the fluorescence intensity result is recorded as “NG” in data set [1]; “NG” in data set [2]; “NG” in [3]; “+” in data set [4]; “NG” in data set [5]; “NG” in data set [6]. The fluorescence intensity entry in [7] is on record as “+”; in [8], “NG”; in data set [9], “+”; in data set [10], “NG”; in data set [11], “+”; in data set [12], “NG”. Besides, the fluorescence intensity entry is “NG” in data set [13]; “NG” in data set [14]; “NG” in data set [15]; “+” in [16]; “+” in [17]; “+” in data set [18]. Besides, in data set [24], the “toxicity (growth inhibition, text)” value is “inhibited”.
